Test results from patent publication US20240384268A1, “Oligonucleotides” (Hudson Institute of Medical Research, priority 2021, published 2024).
In the oligonucleotide strings, read from the 5' end, every base follows the letter of its sugar. An asterisk marks phosphorothioate; unmarked linkages are phosphodiester. Other units and linkages are bracketed, terminal groups are in braces. A string of capitals states the bases alone. d = 2'-deoxy (DNA); m = 2'-O-methyl

Molecular target: T1, TLR8 (Homo sapiens, UniProt Q9NR97)
T1 sequence (Q9NR97 27-1041): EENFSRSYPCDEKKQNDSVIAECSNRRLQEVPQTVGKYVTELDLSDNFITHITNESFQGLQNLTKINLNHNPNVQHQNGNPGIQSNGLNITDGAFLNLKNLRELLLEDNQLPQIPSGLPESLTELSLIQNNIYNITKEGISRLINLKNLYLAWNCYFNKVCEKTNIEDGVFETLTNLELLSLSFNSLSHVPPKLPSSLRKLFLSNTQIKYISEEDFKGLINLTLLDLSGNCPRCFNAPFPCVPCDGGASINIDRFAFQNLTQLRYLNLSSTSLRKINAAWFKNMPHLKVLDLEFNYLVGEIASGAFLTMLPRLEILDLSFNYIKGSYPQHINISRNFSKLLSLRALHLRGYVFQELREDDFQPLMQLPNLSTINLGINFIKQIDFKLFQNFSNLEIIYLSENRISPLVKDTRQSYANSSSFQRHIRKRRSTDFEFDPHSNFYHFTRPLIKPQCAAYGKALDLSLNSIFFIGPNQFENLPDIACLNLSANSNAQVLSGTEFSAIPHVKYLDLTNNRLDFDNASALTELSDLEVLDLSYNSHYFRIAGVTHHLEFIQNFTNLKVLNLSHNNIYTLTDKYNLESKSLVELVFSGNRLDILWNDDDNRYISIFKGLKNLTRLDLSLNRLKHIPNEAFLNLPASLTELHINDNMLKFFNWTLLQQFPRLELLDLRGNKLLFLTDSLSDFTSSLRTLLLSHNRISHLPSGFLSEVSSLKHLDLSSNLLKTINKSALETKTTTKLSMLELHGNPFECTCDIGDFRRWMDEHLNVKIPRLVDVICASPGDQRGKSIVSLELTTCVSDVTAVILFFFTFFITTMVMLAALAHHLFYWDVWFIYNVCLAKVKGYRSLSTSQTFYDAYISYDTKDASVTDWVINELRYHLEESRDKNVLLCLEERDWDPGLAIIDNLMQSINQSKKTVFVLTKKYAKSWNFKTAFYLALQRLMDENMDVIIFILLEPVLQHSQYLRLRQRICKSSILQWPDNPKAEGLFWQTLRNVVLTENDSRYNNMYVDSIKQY
Assay: HEK-TLR8 NF-κB-luciferase reporter, R848 or Motolimod stimulation (potentiation or inhibition)
Type: cell-based
Parameters: expressed in transfected cells; host or cells: 293XLhTLR8 (HEK293)
Conditions: for TLR8 100 nM: MOE-modified ASO at 100 nM; for TLR8 100 nM / TLR8 500 nM: averaged NF-κB-Luciferase relative to R848 condition (fold increase); for TLR8 500 nM: MOE-modified ASO at 500 nM; for TLR8-500 nM: averaged NF-κB-Luciferase relative to R848: HEK-TLR8, 500 nM ASO, fold increase relative to R848 without ASO (Alharbi et al., 2020)

| Substance | TLR8 100 nM | TLR8 500 nM | TLR8-500 nM: averaged NF-κB-Luciferase relative to R848 [fold] |
| --- | --- | --- | --- |
| AGTCGTAGTTGCTTCCTAAC (antisense; 2'-MOE modified, pattern not given here) [MB21D1-1181 MOE] | 3.091 | 5.889 |  |
| ATGCCATCCACTTGATAGGC (antisense; 2'-MOE modified, pattern not given here) [EGFR-2874 MOE] | 2.028 | 2.025 |  |
| CGGAGGTCTTGGCTTCGTGG (antisense; 2'-MOE modified, pattern not given here) [MB21D1-525 MOE] | 2.197 | 3.257 |  |
| CGGCATCCACCACGTCGTCC (antisense; 2'-MOE modified, pattern not given here) [EGFR-3267 MOE] | 1.249 | 0.903 |  |
| GCCCATCCATGAGGTCCTGG (antisense; 2'-MOE modified, pattern not given here) [CTNN2B-2545 MOE] | 0.899 | 0.541 |  |
| GCTGACAAAGATTCACTGGT (antisense; 2'-MOE modified, pattern not given here) [HPRT-1353 MOE] | 1.475 | 3.067 |  |
| GGGTATCGAAAGAGTCTGGA (antisense; 2'-MOE modified, pattern not given here) [EGFR-3908 MOE] | 3.138 | 4.073 |  |
| GGTTTTGGCTGGGATCAAGT (antisense; 2'-MOE modified, pattern not given here) [CAMSAP1-4697 MOE] | 5.496 | 6.332 |  |
| GTCCAAGATCAGCAGTCTCA (antisense; 2'-MOE modified, pattern not given here) [CTNN2B-2341 MOE] | 3.021 | 3.364 |  |
| TCCGGCCTCGGAAGCTCTCT (antisense; 2'-MOE modified, pattern not given here) [MB21D1-168 MOE] | 0.816 | 0.781 |  |
| TGGCAGGCTCAGTGATGTCT (antisense; 2'-MOE modified, pattern not given here) [CTNN2B-1642 MOE] | 1.074 | 0.973 |  |
| TGGGCTGGAATCCGAGTTAT (antisense; 2'-MOE modified, pattern not given here) [EGFR-4705 MOE] | 1.452 | 2.058 |  |
| TGGGTTACGGCTCAGTATGG (antisense; 2'-MOE modified, pattern not given here) [CAMSAP1-4295 MOE] | 1.610 | 1.538 |  |
| TTTGCACACTTCGTACCCAA (antisense; 2'-MOE modified, pattern not given here) [CAMSAP1-4916 MOE] | 1.877 | 2.199 |  |
| mA*mA*mA*mA*mG*A*T*T*A*T*C*T*T*C*T*mU*mU*mU*mA*mA (AAAAGATTATCTTCTUUUAA; sugars from the 5' end m5 d10 m5, all phosphorothioate, methylation of C not given here) [[CDKN2B-AS1]2133] |  |  | 4.68 |
| mA*mA*mA*mA*mU*A*A*G*G*G*G*A*A*T*A*mG*mG*mG*mG*mA (mA*mA*mA*mA*mU*dA*dA*dG*dG*dG*dG*dA*dA*dT*dA*mG*mG*mG*mG*mA; antisense) [[CDKN2B-AS1]79] |  |  | 0.71 |

| Substance | TLR8 100 nM | TLR8 500 nM | TLR8-500 nM: averaged NF-κB-Luciferase relative to R848 [fold] |
| --- | --- | --- | --- |
| mA*mA*mA*mG*mA*T*T*A*T*C*T*T*C*T*T*mU*mU*mA*mA*mU (mA*mA*mA*mG*mA*dT*dT*dA*dT*dC*dT*dT*dC*dT*dT*mU*mU*mA*mA*mU) [[CDKN2B-AS1]2132] |  |  | 5.04 |
| mA*mA*mA*mU*mG*T*C*C*T*G*G*C*C*C*T*mC*mA*mC*mU*mG (mA*mA*mA*mU*mG*dT*dC*dC*dT*dG*dG*dC*dC*dC*dT*mC*mA*mC*mU*mG) [[LINC-PINT]148.1] |  |  | 1.56 |
| mA*mA*mG*mA*mU*T*A*T*C*T*T*C*T*T*T*mU*mA*mA*mU*mU (mA*mA*mG*mA*mU*dT*dA*dT*dC*dT*dT*dC*dT*dT*dT*mU*mA*mA*mU*mU) [[CDKN2B-AS1]2131] |  |  | 5.62 |
| mA*mA*mG*mG*mU*G*G*C*C*A*C*A*G*G*C*mA*mA*mC*mG*mU (mA*mA*mG*mG*mU*dG*dG*dC*dC*dA*dC*dA*dG*dG*dC*mA*mA*mC*mG*mU; antisense) [[CDKN2B-AS1]2198] |  |  | 0.78 |
| mA*mA*mU*mA*mU*C*T*G*C*T*G*C*C*C*A*mC*mC*mU*mU*mC (mA*mA*mU*mA*mU*dC*dT*dG*dC*dT*dG*dC*dC*dC*dA*mC*mC*mU*mU*mC; antisense) [[CDKN2B-AS1]832] |  |  | 4.45 |
| mA*mA*mU*mU*mU*A*A*A*G*C*A*T*G*A*A*mU*mA*mU*mU*mA (mA*mA*mU*mU*mU*dA*dA*dA*dG*dC*dA*dT*dG*dA*dA*mU*mA*mU*mU*mA) [[CDKN2B-AS1]645] |  |  | 5.02 |
| mA*mC*mC*mC*mU*T*C*T*C*T*C*T*G*G*T*mC*mC*mC*mA*mU (mA*mC*mC*mC*mU*dT*dC*dT*dC*dT*dC*dT*dG*dG*dT*mC*mC*mC*mA*mU; antisense) [[LINC-PINT]115] |  |  | 7.57 |
| mA*mG*mA*mA*mA*G*A*A*G*C*A*A*A*G*A*mU*mU*mC*mA*mA (AGAAAGAAGCAAAGAUUCAA; sugars from the 5' end m5 d10 m5, all phosphorothioate, methylation of C not given here) [[CDKN2B-AS1]1519] |  |  | 2.78 |
| mA*mG*mA*mU*mU*A*T*C*T*T*C*T*T*T*T*mA*mA*mU*mU*mU (AGAUUATCTTCTTTTAAUUU; sugars from the 5' end m5 d10 m5, all phosphorothioate, methylation of C not given here) [[CDKN2B-AS1]2130] |  |  | 6.26 |
| mA*mG*mC*mC*mG*A*A*C*A*G*A*A*G*G*A*mG*mC*mG*mU*mC (AGCCGAACAGAAGGAGCGUC; sugars from the 5' end m5 d10 m5, all phosphorothioate, methylation of C not given here) [[LINC-PINT]587 KL] |  |  | 3.73 |
| mA*mG*mG*mA*mU*T*A*A*A*A*C*A*G*A*T*mU*mA*mA*mU*mA (mA*mG*mG*mA*mU*dT*dA*dA*dA*dA*dC*dA*dG*dA*dT*mU*mA*mA*mU*mA) [[CDKN2B-AS1] 1775] |  |  | 2.63 |
| mA*mG*mG*mC*mC*T*C*C*A*G*T*G*T*C*T*mU*mC*mU*mC*mC (mA*mG*mG*mC*mC*dT*dC*dC*dA*dG*dT*dG*dT*dC*dT*mU*mC*mU*mC*mC; antisense) [[CDKN2B-AS1]2218] |  |  | 4.66 |
| mA*mU*mA*mU*mC*T*G*C*T*G*C*C*C*A*C*mC*mU*mU*mC*mU (AUAUCTGCTGCCCACCUUCU; antisense; sugars from the 5' end m5 d10 m5, all phosphorothioate, methylation of C not given here) [[CDKN2B-AS1]831] |  |  | 5.89 |
| mA*mU*mG*mA*mC*A*T*T*T*C*G*T*G*G*C*mU*mC*mC*mU*mA (mA*mU*mG*mA*mC*dA*dT*dT*dT*dC*dG*dT*dG*dG*dC*mU*mC*mC*mU*mA) [[LINC-PINT]524.1] |  |  | 1.20 |
| mC*mA*mA*mG*mC*C*C*C*A*G*C*G*T*T*C*mC*mU*mC*mC*mG (mC*mA*mA*mG*mC*dC*dC*dC*dA*dG*dC*dG*dT*dT*dC*mC*mU*mC*mC*mG; antisense) [[LINC-PINT]83.1] |  |  | 4.44 |
